Experimental data as given in PubChem BioAssay (NCI).
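Where inhibition never reached the appropriate level, the endpoint shown equals the highest concentration tested. Otherwise, values were interpolated linearly from a five-concentration, 48-hour dose response in 96-well plates. GI50 is the concentration that inhibits growth by half. The concentration for full growth arrest is given as TGI.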

Legend:
Assay in all cases: DTP human tumour cell line panel, 48 h
A549 NSCLC = system: A549 NSCLC
ACHN renal = system: ACHN renal
MOLT-4 leukemia = system: MOLT-4 leukemia
SR leukemia = system: SR leukemia
HOP-62 NSCLC = system: HOP-62 NSCLC
MDA-MB-231 breast = system: MDA-MB-231 breast
SK-OV-3 ovarian = system: SK-OV-3 ovarian
HS 578T breast = system: HS 578T breast
MCF7 breast = system: MCF7 breast
SF-295 CNS = system: SF-295 CNS
UACC-257 melanoma = system: UACC-257 melanoma
A498 renal = system: A498 renal
RPMI-8226 leukemia = system: RPMI-8226 leukemia
COLO 205 colon = system: COLO 205 colon
UO-31 renal = system: UO-31 renal
PC-3 prostate = system: PC-3 prostate
MDA-MB-435 = system: MDA-MB-435
SF-268 CNS = system: SF-268 CNS
HCT-15 colon = system: HCT-15 colon
DU-145 prostate = system: DU-145 prostate
OVCAR-5 ovarian = system: OVCAR-5 ovarian
SF-539 CNS = system: SF-539 CNS
OVCAR-4 ovarian = system: OVCAR-4 ovarian
HT29 colon = system: HT29 colon
NCI-H522 lung = system: NCI-H522 lung
MALME-3M melanoma = system: MALME-3M melanoma
OVCAR-3 ovarian = system: OVCAR-3 ovarian
HOP-92 NSCLC = system: HOP-92 NSCLC
NCI-H23 lung = system: NCI-H23 lung
BT-549 breast = system: BT-549 breast
SNB-75 CNS = system: SNB-75 CNS
RXF 393 renal = system: RXF 393 renal
CCRF-CEM leukemia = system: CCRF-CEM leukemia
OVCAR-8 ovarian = system: OVCAR-8 ovarian
T-47D breast = system: T-47D breast
HL-60(TB) leukemia = system: HL-60(TB) leukemia
UACC-62 melanoma = system: UACC-62 melanoma
SK-MEL-28 melanoma = system: SK-MEL-28 melanoma
KM12 colon = system: KM12 colon
SN12C renal = system: SN12C renal
IGROV1 ovarian = system: IGROV1 ovarian
SK-MEL-5 melanoma = system: SK-MEL-5 melanoma
SNB-19 CNS = system: SNB-19 CNS
NCI-H226 lung = system: NCI-H226 lung
K-562 leukemia = system: K-562 leukemia
786-0 renal = system: 786-0 renal
LOX IMVI melanoma = system: LOX IMVI melanoma
NCI-H460 lung = system: NCI-H460 lung
HCT-116 colon = system: HCT-116 colon
EKVX NSCLC = system: EKVX NSCLC
HCC-2998 colon = system: HCC-2998 colon
MDA-MB-468 breast = system: MDA-MB-468 breast
SK-MEL-2 melanoma = system: SK-MEL-2 melanoma
TK-10 renal = system: TK-10 renal
M14 melanoma = system: M14 melanoma
U251 CNS = system: U251 CNS

CN(C)C(=O)c1cc(-c2ccc3ncnc(N4CCc5cc(F)c(Cl)cc54)c3c2)cnc1N
GI50 (A549 NSCLC): 113 nM
TGI (A549 NSCLC): 1490 nM
GI50 (ACHN renal): 217 nM
TGI (ACHN renal): 3220 nM
GI50 (MOLT-4 leukemia): 63.8 nM
TGI (MOLT-4 leukemia): 3950 nM
GI50 (SR leukemia): 76.5 nM
TGI (SR leukemia): 815 nM
GI50 (HOP-62 NSCLC): 154 nM
TGI (HOP-62 NSCLC): 2310 nM
GI50 (MDA-MB-231 breast): 203 nM
TGI (MDA-MB-231 breast): 1520 nM
GI50 (SK-OV-3 ovarian): 316 nM
TGI (SK-OV-3 ovarian): 1750 nM
GI50 (HS 578T breast): 30.9 nM
TGI (HS 578T breast): 437 nM
GI50 (MCF7 breast): 32.2 nM
TGI (MCF7 breast): 1310 nM
GI50 (SF-295 CNS): 244 nM
TGI (SF-295 CNS): 1250 nM
GI50 (UACC-257 melanoma): 198 nM
TGI (UACC-257 melanoma): 3920 nM
GI50 (A498 renal): 127 nM
TGI (A498 renal): 459 nM
GI50 (RPMI-8226 leukemia): 57.2 nM
TGI (RPMI-8226 leukemia): 419 nM
GI50 (COLO 205 colon): 225 nM
TGI (COLO 205 colon): 540 nM
GI50 (UO-31 renal): 32.1 nM
TGI (UO-31 renal): 1860 nM
GI50 (PC-3 prostate): 104 nM
TGI (PC-3 prostate): 7190 nM
GI50 (MDA-MB-435): 187 nM
TGI (MDA-MB-435): 3180 nM
GI50 (SF-268 CNS): 149 nM
TGI (SF-268 CNS): 4270 nM
GI50 (HCT-15 colon): 127 nM
TGI (HCT-15 colon): 1420 nM
GI50 (DU-145 prostate): 95 nM
TGI (DU-145 prostate): > 100000 nM
GI50 (OVCAR-5 ovarian): 168 nM
TGI (OVCAR-5 ovarian): 2450 nM
GI50 (SF-539 CNS): 135 nM
TGI (SF-539 CNS): 700 nM
GI50 (OVCAR-4 ovarian): 229 nM
TGI (OVCAR-4 ovarian): 11300 nM
GI50 (HT29 colon): 141 nM
TGI (HT29 colon): 1580 nM
GI50 (NCI-H522 lung): 214 nM
TGI (NCI-H522 lung): 1510 nM
GI50 (MALME-3M melanoma): 45.5 nM
TGI (MALME-3M melanoma): 366 nM
GI50 (OVCAR-3 ovarian): 128 nM
TGI (OVCAR-3 ovarian): 743 nM
GI50 (HOP-92 NSCLC): 144 nM
TGI (HOP-92 NSCLC): 673 nM
GI50 (NCI-H23 lung): 194 nM
TGI (NCI-H23 lung): 2860 nM
GI50 (BT-549 breast): 74.7 nM
TGI (BT-549 breast): 437 nM
GI50 (SNB-75 CNS): 23 nM
TGI (SNB-75 CNS): 649 nM
GI50 (RXF 393 renal): 37.9 nM
TGI (RXF 393 renal): 317 nM
GI50 (CCRF-CEM leukemia): 137 nM
GI50 (OVCAR-8 ovarian): 216 nM
TGI (OVCAR-8 ovarian): 7500 nM
GI50 (T-47D breast): 32.3 nM
TGI (T-47D breast): 1430 nM
GI50 (HL-60(TB) leukemia): 57.5 nM
TGI (HL-60(TB) leukemia): 682 nM
GI50 (UACC-62 melanoma): 109 nM
TGI (UACC-62 melanoma): 440 nM
GI50 (SK-MEL-28 melanoma): 195 nM
TGI (SK-MEL-28 melanoma): 5180 nM
GI50 (KM12 colon): 243 nM
TGI (KM12 colon): 2070 nM
GI50 (SN12C renal): 69.8 nM
TGI (SN12C renal): 3020 nM
GI50 (IGROV1 ovarian): 30.1 nM
TGI (IGROV1 ovarian): 161 nM
GI50 (SK-MEL-5 melanoma): 125 nM
TGI (SK-MEL-5 melanoma): 276 nM
GI50 (SNB-19 CNS): 276 nM
TGI (SNB-19 CNS): 3440 nM
GI50 (NCI-H226 lung): 131 nM
TGI (NCI-H226 lung): 3370 nM
GI50 (K-562 leukemia): 281 nM
TGI (K-562 leukemia): > 100000 nM
GI50 (786-0 renal): 129 nM
TGI (786-0 renal): 1430 nM
GI50 (LOX IMVI melanoma): 170 nM
TGI (LOX IMVI melanoma): 1170 nM
GI50 (NCI-H460 lung): 161 nM
TGI (NCI-H460 lung): > 37300 nM
GI50 (HCT-116 colon): 111 nM
TGI (HCT-116 colon): 296 nM
GI50 (EKVX NSCLC): 131 nM
TGI (EKVX NSCLC): 741 nM
GI50 (HCC-2998 colon): 165 nM
TGI (HCC-2998 colon): 1030 nM
GI50 (MDA-MB-468 breast): 43 nM
TGI (MDA-MB-468 breast): 178 nM
GI50 (SK-MEL-2 melanoma): 191 nM
TGI (SK-MEL-2 melanoma): 474 nM
GI50 (TK-10 renal): 137 nM
TGI (TK-10 renal): 1210 nM
GI50 (M14 melanoma): 277 nM
GI50 (U251 CNS): 200 nM
TGI (U251 CNS): 2240 nM
